One may read the inhibition as how much of the control response was suppressed. By IC50 is commonly meant the midpoint of a concentration-inhibition curve. As a reminder, the Cmax is the highest concentration seen after dosing. The AUC(0-t) is exposure summed from dosing to a finite time, without extrapolation to infinity.

This is an account of results in ChEMBL document CHEMBL3351804, “Development of 2-aryl substituted quinazolin-4(3H)-one, pyrido[4,3-d]pyrimidin-4(3H)-one and pyrido[2,3-d]pyrimidin-4(3H)-one derivatives as microsomal prostaglandin E(2) synthase-1 inhibitors” (Bioorg Med Chem Lett, 2014).

The target in series [1] is Hematopoietic prostaglandin D synthase (Homo sapiens) (UniProt O60760). Briefly: Inhibition of recombinant PGDS (unknown origin) at 10 uM.
In series [2] the target is Prostaglandin E synthase 2 (Homo sapiens) (UniProt Q9H7Z7). The series is described as follows: Inhibition of recombinant mPGES-2 (unknown origin) at 10 uM.
Series [3] concerns the target Prostaglandin F2-alpha receptor (Homo sapiens) (UniProt P43088). The series is described as follows: Induction of recombinant PGF2-alpha (unknown origin) at 10 uM.
For series [4], the target named is T1, Prostaglandin E synthase (Canis lupus familiaris, UniProt A0SYQ0).
T1 sequence (A0SYQ0 whole entry): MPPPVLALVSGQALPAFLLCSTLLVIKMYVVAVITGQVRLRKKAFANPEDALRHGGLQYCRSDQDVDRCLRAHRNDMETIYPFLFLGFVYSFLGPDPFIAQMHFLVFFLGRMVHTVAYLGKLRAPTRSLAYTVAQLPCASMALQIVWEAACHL
The series is described as follows: Inhibition of mPGES-1 in dog whole blood assessed as inhibition of LPS-induced PGE2 production after overnight incubation.

Series [5] concerns the target T2, Prostaglandin G/H synthase 2 (Homo sapiens) (UniProt P35354).
T2 sequence (whole entry): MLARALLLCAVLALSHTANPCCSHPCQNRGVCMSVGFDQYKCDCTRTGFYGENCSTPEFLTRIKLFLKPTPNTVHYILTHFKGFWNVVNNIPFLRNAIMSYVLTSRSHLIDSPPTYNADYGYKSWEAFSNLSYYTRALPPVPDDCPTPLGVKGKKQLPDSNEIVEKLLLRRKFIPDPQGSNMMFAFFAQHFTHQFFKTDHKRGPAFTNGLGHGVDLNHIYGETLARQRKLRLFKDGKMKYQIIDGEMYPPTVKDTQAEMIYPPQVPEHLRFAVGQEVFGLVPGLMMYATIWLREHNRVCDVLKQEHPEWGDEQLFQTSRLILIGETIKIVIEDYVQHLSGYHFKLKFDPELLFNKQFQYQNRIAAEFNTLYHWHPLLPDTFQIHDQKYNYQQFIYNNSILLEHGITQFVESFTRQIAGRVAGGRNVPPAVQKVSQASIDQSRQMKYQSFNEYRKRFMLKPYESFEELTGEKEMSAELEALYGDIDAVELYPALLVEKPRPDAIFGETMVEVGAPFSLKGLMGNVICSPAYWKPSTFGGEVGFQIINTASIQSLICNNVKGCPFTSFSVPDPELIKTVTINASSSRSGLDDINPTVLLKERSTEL
The series is described as follows: Inhibition of recombinant COX2 (unknown origin) at 10 uM.

Series [6] can be described thus: Cmax in Sprague-Dawley rat at 10 mg/kg, po. It is filed as ADME, organism-based. The arrangement: dose 10 mg/kg, route oral. Particulars: in vivo.
Series [7] addresses T3, Prostacyclin synthase (Homo sapiens) (UniProt Q16647).
T3 sequence (whole entry): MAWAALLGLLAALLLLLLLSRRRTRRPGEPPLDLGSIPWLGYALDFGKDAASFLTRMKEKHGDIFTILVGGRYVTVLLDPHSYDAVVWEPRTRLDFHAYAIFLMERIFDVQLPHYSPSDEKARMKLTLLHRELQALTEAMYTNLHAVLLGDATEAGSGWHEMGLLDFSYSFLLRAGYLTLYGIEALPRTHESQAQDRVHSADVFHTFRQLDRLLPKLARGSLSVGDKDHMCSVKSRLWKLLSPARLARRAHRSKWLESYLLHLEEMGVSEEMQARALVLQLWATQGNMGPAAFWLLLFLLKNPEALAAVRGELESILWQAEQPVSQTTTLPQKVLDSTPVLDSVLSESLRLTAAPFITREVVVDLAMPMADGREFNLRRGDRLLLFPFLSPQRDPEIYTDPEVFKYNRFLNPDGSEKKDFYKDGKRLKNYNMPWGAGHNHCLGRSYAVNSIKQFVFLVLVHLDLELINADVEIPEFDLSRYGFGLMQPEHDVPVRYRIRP
The series is described as follows: Inhibition of recombinant PGIS (unknown origin) at 10 uM.

For series [8], the target named is T4, Prostaglandin E synthase (Homo sapiens, UniProt O14684).
T4 sequence (O14684 whole entry): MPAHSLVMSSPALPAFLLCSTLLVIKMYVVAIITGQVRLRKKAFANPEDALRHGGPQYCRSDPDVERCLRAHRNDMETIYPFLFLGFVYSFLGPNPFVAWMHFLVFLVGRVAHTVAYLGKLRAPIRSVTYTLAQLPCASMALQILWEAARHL
Briefly: Inhibition of human recombinant mPGES-1 expressed in CHO cells using PGH2 as substrate incubated for 10 mins prior to substrate addition measured after 1 min.

Series [9] can be described thus: Stability in guinea pig liver microsomes assessed as compound remaining after 60 mins. It is filed as ADME, Cavia porcellus. Particulars: read-out: Stability.
Series [10] in a line: AUClast in Sprague-Dawley rat at 10 mg/kg, po. Further details: time 0 - last, dose 10 mg/kg, route oral. Particulars: plasma. The class given is ADME, organism-based.
Series [11] addresses Prostaglandin G/H synthase 1 (Homo sapiens) (UniProt P23219). Briefly: Inhibition of COX1 in human U937 cells at 10 uM. The class given is cell-based. Particulars: U-937.
A short description of series [12]: Inhibition of guinea pig recombinant mPGES-1. The arrangement: species or system Cavia porcellus.
Series [13] concerns the target T5, Prostaglandin E synthase 3 (Homo sapiens) (UniProt Q15185).
T5 sequence (whole entry): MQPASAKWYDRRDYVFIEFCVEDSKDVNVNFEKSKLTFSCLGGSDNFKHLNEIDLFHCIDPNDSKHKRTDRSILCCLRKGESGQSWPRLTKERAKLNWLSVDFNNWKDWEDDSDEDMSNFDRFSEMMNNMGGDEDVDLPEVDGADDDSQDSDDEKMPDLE
The series is described as follows: Inhibition of recombinant cPGES (unknown origin) at 10 uM.

The target in series [14] is T4, Prostaglandin E synthase. Briefly: Inhibition of mPGES-1 in human whole blood assessed as inhibition of LPS-induced PGE2 production after overnight incubation.
The nature of series [15]: Stability in rat liver microsomes assessed as compound remaining after 60 mins. It is filed as ADME. Particulars: read-out: Stability. Background: Microsomes from liver hold many membrane-bound enzymes, among them those of drug oxidation.
For series [16], the target named is T6, Thromboxane-A synthase (Homo sapiens) (UniProt P24557).
T6 sequence (whole entry): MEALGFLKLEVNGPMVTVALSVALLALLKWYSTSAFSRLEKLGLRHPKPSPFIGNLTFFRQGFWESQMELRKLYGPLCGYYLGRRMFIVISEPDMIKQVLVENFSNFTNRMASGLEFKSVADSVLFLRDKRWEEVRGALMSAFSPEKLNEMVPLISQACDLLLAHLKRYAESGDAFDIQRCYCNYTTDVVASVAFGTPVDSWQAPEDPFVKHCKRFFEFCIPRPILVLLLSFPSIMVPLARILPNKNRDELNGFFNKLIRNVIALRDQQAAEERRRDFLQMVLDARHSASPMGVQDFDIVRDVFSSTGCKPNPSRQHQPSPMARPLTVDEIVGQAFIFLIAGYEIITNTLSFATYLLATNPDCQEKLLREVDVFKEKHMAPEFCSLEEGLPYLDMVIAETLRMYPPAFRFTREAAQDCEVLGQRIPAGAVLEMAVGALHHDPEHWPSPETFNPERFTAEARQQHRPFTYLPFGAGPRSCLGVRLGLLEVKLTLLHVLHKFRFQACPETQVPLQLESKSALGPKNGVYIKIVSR
Briefly: Inhibition of recombinant TXAS (unknown origin) at 10 uM.

Series [17] deals with T4, Prostaglandin E synthase. The series is described as follows: Inhibition of mPGES-1 in human A549 cells assessed as inhibition of IL-1beta-induced PGE2 production incubated for 30 mins prior to IL-1beta challenge measured after 18 to 24 hrs. The class given is cell-based.
Series [18] is described as follows: Stability in human liver microsomes assessed as compound remaining after 60 mins. It is filed as ADME. Particulars: read-out: Stability.

Prostaglandin F2-alpha receptor (Homo sapiens), sequence (P43088 whole entry): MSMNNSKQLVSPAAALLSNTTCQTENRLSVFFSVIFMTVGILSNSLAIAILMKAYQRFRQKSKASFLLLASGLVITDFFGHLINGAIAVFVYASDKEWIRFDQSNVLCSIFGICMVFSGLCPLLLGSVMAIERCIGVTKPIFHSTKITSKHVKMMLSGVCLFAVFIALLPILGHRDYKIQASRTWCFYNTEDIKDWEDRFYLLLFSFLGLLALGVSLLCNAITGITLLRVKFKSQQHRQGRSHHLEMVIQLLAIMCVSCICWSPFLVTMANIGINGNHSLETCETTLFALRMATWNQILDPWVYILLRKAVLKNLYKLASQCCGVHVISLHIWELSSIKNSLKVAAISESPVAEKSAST
Hematopoietic prostaglandin D synthase (Homo sapiens), sequence (O60760 whole entry): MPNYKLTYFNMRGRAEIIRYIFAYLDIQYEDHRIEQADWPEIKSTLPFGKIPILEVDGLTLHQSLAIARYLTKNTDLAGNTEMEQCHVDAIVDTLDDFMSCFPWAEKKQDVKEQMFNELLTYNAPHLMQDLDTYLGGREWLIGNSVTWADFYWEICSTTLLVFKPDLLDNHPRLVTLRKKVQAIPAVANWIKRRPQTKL
Prostaglandin E synthase 2 (Homo sapiens), sequence (Q9H7Z7 whole entry): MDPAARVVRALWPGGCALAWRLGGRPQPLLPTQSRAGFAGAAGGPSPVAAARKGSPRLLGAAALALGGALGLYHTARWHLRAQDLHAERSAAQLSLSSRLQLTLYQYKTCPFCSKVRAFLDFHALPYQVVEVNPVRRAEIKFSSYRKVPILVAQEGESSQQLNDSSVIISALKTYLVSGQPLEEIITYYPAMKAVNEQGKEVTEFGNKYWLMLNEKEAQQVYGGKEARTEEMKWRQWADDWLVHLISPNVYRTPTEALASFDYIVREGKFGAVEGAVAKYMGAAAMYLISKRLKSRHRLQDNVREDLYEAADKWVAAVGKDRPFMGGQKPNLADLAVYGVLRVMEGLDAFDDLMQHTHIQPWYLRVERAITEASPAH
Prostaglandin G/H synthase 1 (Homo sapiens), sequence (P23219 whole entry): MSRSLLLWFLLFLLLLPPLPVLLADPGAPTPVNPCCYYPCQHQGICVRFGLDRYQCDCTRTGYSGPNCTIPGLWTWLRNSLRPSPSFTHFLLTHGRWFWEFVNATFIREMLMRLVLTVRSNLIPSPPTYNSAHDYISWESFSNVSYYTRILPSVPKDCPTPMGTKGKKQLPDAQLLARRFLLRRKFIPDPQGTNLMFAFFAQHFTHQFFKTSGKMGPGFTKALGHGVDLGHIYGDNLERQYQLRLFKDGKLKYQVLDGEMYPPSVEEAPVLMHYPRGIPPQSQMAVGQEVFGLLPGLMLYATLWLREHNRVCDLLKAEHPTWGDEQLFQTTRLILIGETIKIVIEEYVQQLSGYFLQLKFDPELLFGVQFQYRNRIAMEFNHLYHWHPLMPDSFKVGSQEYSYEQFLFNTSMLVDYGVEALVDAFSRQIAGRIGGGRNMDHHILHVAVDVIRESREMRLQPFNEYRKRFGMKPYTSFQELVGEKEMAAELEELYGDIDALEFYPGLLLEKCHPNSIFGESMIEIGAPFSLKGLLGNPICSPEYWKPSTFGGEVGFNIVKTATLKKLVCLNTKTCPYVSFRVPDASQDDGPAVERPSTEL

On to `CC(C)C(=O)NCc1ccc(Cl)c(-c2nc3cc(-c4ccc(C(F)(F)F)cc4)ncc3c(=O)[nH]2)c1`, for which the inhibition in series [1] worked out at 18.7%; in series [2], 0.02%; in [5], 4.87%; in series [7], 0.67%; in series [11], 2.74%; in series [13], 18.7%. For the same molecule, in series [16], the inhibition is 10.5%. The Activity in series [3] is 186%. Further, the half-maximal inhibitory concentration (IC50) worked out at 154 nM at Prostaglandin E synthase [4]; 5 nM on Prostaglandin E synthase [8]; 12 nM in [12]; 376 nM at Prostaglandin E synthase [14]; 5 nM at Prostaglandin E synthase [17]. Moreover, the peak concentration (Cmax) in series [6] was 72 ng/mL. Moreover, the values for the remaining at 1 h in [9], in series [15] and in [18] were 87%, 77% and 91%, respectively. For the same molecule, the AUC(0-t) in [10] was 1230 ng·h/mL.
